{"source": "patent US20080153792A1", "about": "“Drug Identification and Treatment Method” (priority 2006, published 2008)", "key": {"[1]": {"system": "11β-HSD1", "assay": "expression of 11β-HSD1 in osteoblasts of treated mice", "format": "in vivo, mouse", "conditions": "administration to mice"}, "[2]": {"system": "8 week old db/db diabetic mice", "assay": "hyperinsulinemic-euglycemic clamp in db/db mice", "format": "in vivo, mouse", "conditions": "oral gavage 14 days; insulin 10 mU/kg/min", "method": "Glucose lowering in 8 week old db/db diabetic mice. The hyperinsulinemic-euglycemic clamp protocol was conducted to measure insulin sensitivity in vivo. In this procedure, insulin was administered to raise the insulin concentration while glucose was infused to maintain euglycemia or a fixed, normal blood glucose level (about 180 mg/dL). […] The objective of this protocol was to investigate characterize the capacity of 17α-ethynylandrost-5-ene-3β,7β,17β-triol and androst-5-ene-3β,7β,16α,17β-tetrol to ameliorate systemic insulin resistance and improve whole body glucose disposal in the hyperinsulinemic-euglycemic clamp model. The degree of skeletal muscle and hepatic insulin sensitivity and tissue specific glucose uptake were also assessed. The animals were dosed daily by oral gavage for 14 days. On Day 10 of treatment catheters were implanted in the carotid artery and jugular vein. On the day of the clamp (day 14) the compound was administered at 7:30 am.\nBody weight and glucose concentration were assessed on day 0, 7 and day 14 of treatment. On day 14 a euglycemic hyperinsulinemic clamp was performed. […] Plasma ^14C 2-deoxyglucose was assessed at 122, 125, 130, 135, 145 min. […]\nAnalysis was conducted as follows. Plasma samples were deproteinized with Ba(OH)2 (0.3 N) and ZnSO4 (0.3 N), dried and radioactivity was assessed on scintillation counter (Packard TRICARB 2900 TR, Meriden, Conn.). […] One supernatant was directly counted to determine radioactivity from both [14C] […] A second aliquot was treated with Ba(OH)2 and ZnSO4 to remove ^14C DGP and any tracer incorporated into glycogen and then counted to determine radioactivity from free [^14C]DG(2). [^14C]DGP was calculated as the difference between the two aliquots. […] Rg, an index of tissue specific glucose uptake was calculated as previously described (E. W. Kraegen et al., Am. J. Physiol., 248:E353-E362, 1985). Whole body glucose turnover was calculated as the ratio of the ^3H glucose infusion rate (dpm/kg/min) and arterial plasma glucose specific activity (dpm/mg). […]"}, "[3]": {"system": "NF-κB in nuclei from spleen cells", "assay": "kinetic analysis of NF-kB inhibition in vivo after LPS, Example 9", "design": "species or system mouse", "conditions": "about 40 mg/kg i.p. 24 h before LPS", "method": "Kinetic analysis of NF-kB inhibition in vivo. […] The drug was injected 24 hours before intraperitoneal injection of bacterial LPS (about an LD50/24). The study used two groups of 12 animals, vehicle control or drug administered 24 hours before LPS challenge. Spleens were harvested from 3 animals from both groups just before LPS challenge and at 1.5, 2.0 and 2.5 hours after administration of LPS.\nMaximum NF-κB activation after LPS administration occurred at 1.5 hours in the vehicle controls, which was 4-fold increased over the pre-LPS level of activated NF-κB. The values for the vehicle control and drug treated animals are relative optical density units from ELISA measurement of NF-κB in nuclei from spleen cells."}, "[4]": {"system": "human peripheral blood mononuclear cells (PBMC)", "assay": "human mixed lymphocyte reaction (MLR)", "format": "cell-based", "conditions": "either 300 nM or 30 nM; 6 days; p>0.05", "method": "Human mixed lymphocyte reaction (MLR). The capacity of 3β,16α-dihydroxy-17-oxoandrostane, 3β,17β-dihydroxy-16-oxoandrostane, 17α-ethynylandrost-5-ene-3β,7β,17β-triol, and 17β-aminoandrost-5-ene-3β-ol to affect antigen specific stimulation in which human T lymphocytes respond to a specific foreign antigen (major histocompatibility complex).\nBlood samples were obtained from 3 (2 males, […]) fasting, healthy human volunteers of 23-31 years old. […] The subjects were bled between […] to limit possible fluctuations in the circulating levels of hormones or cytokines that could have influenced the in vitro responses of their lymphocytes. Peripheral blood mononuclear cells (PBMC) were isolated by centrifugation on Ficoll-Hypaque (density 1.077, Biochrom AG, Berlin, Germany) gradients and resuspended in culture medium (RPMI 1640 supplemented with 2 mM L-glutamine, penicillin (100 U/mL) and streptomycin ([…]) (Invitrogen s.rl., Milan, Italy). Autologous (responder) inactivated plasma was used at 10%. Five hundred thousand responder PBMC (PBMCr) and 500,000 allogeneic irradiated (30 Gy) stimulator PBMC (PBMCs) were mixed at a ratio of 1:1 in 200 μL medium and cultured for 6 days in flat bottom 96 well plates (Nunc, Roskilde, Denmark) at a concentration of 300 nM or 30 nM for each of the 4 compounds. The compounds were dissolved in ethanol and then diluted to the desired concentration with culture medium leading to a final solution containing 0.01% of ethanol. This vehicle was used as control. Controls also included PBMCr and PBMCs cultured separately. During the last 8 hours of the culture period the PBMC were pulsed with 1 μCi/well [^3H] thymidine (Amersham, Milan, Italy). The cells were then harvested and radioactivity incorporation measured with a beta cell counter. The mean cpm of quadruplicate wells was calculated. Proliferation of T cells was expressed as a stimulation index: SI=cpm (PMBCs xPBMCr)/cpm (PBMCr)+cpm (PBMCs). Statistical analysis was performed using the Student's t test. The cpm obtained from quadruplicate of each test compound were compared to proliferative responses obtained in control PBMCr and PBMCs cultured in the presence of the vehicle. Differences were considered significant at p<0.05."}}, "data": [{"smiles": "C#C[C@]1(O)CC[C@H]2[C@@H]3[C@@H](O)C=C4C[C@@H](O)CC[C@]4(C)[C@H]3CC[C@@]21C", "note": "[17α-ethynylandrost-5-ene-3β,7β,17β-triol]", "values": [{"measurement": "decrease of expression of 11β-HSD1 in osteoblasts", "setting": "[1]", "value": "about 50%"}, {"measurement": "glucose infusion rate compared to the vehicle control", "setting": "[2]", "value": "increased the glucose infusion rate"}, {"measurement": "activated NF-κB in spleen cell nuclei (ELISA)", "setting": "[3]; 0 hours (just before LPS)", "value": "22 relative optical density units"}, {"measurement": "activated NF-κB in spleen cell nuclei (ELISA)", "setting": "[3]; 1.5 hours after LPS", "value": "2 relative optical density units"}, {"measurement": "activated NF-κB in spleen cell nuclei (ELISA)", "setting": "[3]; 2.0 hours after LPS", "value": "7 relative optical density units"}, {"measurement": "activated NF-κB in spleen cell nuclei (ELISA)", "setting": "[3]; 2.5 hours after LPS", "value": "9 relative optical density units"}, {"measurement": "immune suppression in the MLR", "setting": "[4]", "value": "not appreciably immune suppressive"}]}]}
